Values of other authors, collected in patent publication US6613244B2, “Ironing aid composition” (Unilever Home & Personal Care USA, division of Conopco, Inc., priority 2000, dated 2003).

Conditions: stated in words, related to ClogP

In the case of `CC(=O)OC(c1ccccc1)C(Cl)(Cl)Cl` (stereo not shown) [rose acetate], the solubility in water is listed as “not easily soluble in water”.
